Patent publication US20090291975A1, “DUAL OPIOID PAIN THERAPY” (priority 2008, published 2009)

Tested on: patients following bunionectomy surgery (acute pain)
Test: Study 4: opioid adverse events at morphine equivalent doses, bunionectomy study
Conditions: morphine equivalent 12 mg, q6h, 48 hr

Structure (SMILES) | Adverse Events (%): Constipation - moderate/severe | Adverse Events (%): Constipation mild/mod/severe | Adverse Events (%): Dizziness - moderate/severe | Adverse Events (%): Dizziness mild/mod/severe | Adverse Events (%): Nausea - moderate/severe | Adverse Events (%): Nausea mild/mod/severe | Adverse Events (%): Vomiting - moderate/severe | Adverse Events (%): Vomiting mild/mod/severe | Dropouts (%)
CN1CC[C@]23c4c5ccc(O)c4O[C@H]2[C@@H](O)C=C[C@H]3[C@H]1C5 [Morphine, morphine] | 10% | 10% | 7% | 31% | 28% | 59% | 21% | 21% | 7%
COc1ccc2c3c1O[C@H]1C(=O)CC[C@@]4(O)[C@@H](C2)N(C)CC[C@]314 [Oxycodone, oxycodone] | 6% | 6% | 12% | 24% | 26% | 50% | 21% | 21% | 12%
